Measured values as given in EP0919233A1, “THERAPEUTIC AGENT FOR KIDNEY DISEASES” (KYOWA HAKKO KOGYO KABUSHIKI KAISHA, priority 1996, dated 1997).

How the values were obtained:
Type in all cases: in vivo
Masugi Nephritis = test: Effect on Increase of Albumin Excretion in Masugi Nephritis; settings: ddY-strain male mice, 1 mg/kg orally once a day from the previous immunization, 24 hr urine four weeks after second NT injection, mean ± standard error, n=11; control group 134 ± 9, normal group 85 ± 5
Protocol: Mouse nephrotoxin (hereinafter referred to as NT) was prepared according to the method of Ito, et al. [The Japanese Journal of Nephrology, 23, 25-36 (1981)]. That is, glomerular basement membrane (hereinafter referred to as GBM) was isolated from mouse kidney and digested with trypsin (Sigma). The digested GBM was subjected to ultracentrifugation under cooling, and the supernatant was dialyzed against distilled water, followed by lyophilization. The lyophile product was intracutaneously injected as an antigen into four foot pads of a rabbit together with Freund's complete adjuvant (Iatron; hereinafter referred to as FCA) once a week for 4 weeks for immunization. The whole blood was drawn from the immunized rabbit, and serum was separated and inactivated at 56°C for 30 minutes to prepare NT.
In this test, ddY-strain male mice weighing 29-36 g were used. For previous immunization, 0.25 ml of an FCA emulsion containing 0.25 mg of rabbit immunoglobulin-globulin (IgG, Sigma) was intraperitoneally injected into mice. Nephritis was induced by intravenous injection of 0.075 ml of NT through the tail vein 4 and 11 days after the previous immunization. […] The supernatant was analyzed for urinary albumin content using an autoanalyzer (Olympus). […]
The results are shown in Table 5 as the means ± standard error of each group consisting of 11 mice. Statistical significance was evaluated by Student's t-test.

dd-strain male mice = test: Acute Toxicity Test (minimum lethal dose); settings: three mice per group, mortality observed seven days after administration
Protocol: A test compound was orally or intraperitoneally administered to groups of dd-strain male mice weighing 20 ± 1 g, each group consisting of three mice. […] The MLD was >1000 mg/kg for oral administration of Compound 10 and was >100 mg/kg for intraperitoneal administration of Compound 10.

Diabetic Nephropathy = test: Effect on Increase of Albumin Excretion in Diabetic Nephropathy (streptozotocin-induced); settings: STZ-diabetic ddY-strain male mice, 24 hr urine twelve weeks after STZ, mean ± standard error, control group 333 ± 30, normal group 80 ± 3
Protocol: In this test, ddY-strain male mice weighing 25-28 g were used. Diabetes was induced according to the method of Tsuchida, et al. [Jin To Toseki (Kidney and Dialysis), 31, 363-366 (1991)]. That is, streptozotocin (5 mg/ml, Sigma; hereinafter referred to as STZ) dissolved in 0.05 M citrate buffer was intravenously injected into mice through the tail vein at a dose of 10 ml/kg. On the fourth day after the STZ administration, 30 µl of blood was collected from the tail vein of the mice and the blood glucose was determined using Glutestsensor (Sanwa Kagaku). The animals were divided into three groups based on the blood glucose level. Twelve weeks after the STZ administration, each mouse was put into a metabolic cage and received oral administration of 0.5 ml/10 g of distilled water twice at an interval of 12 hours. Urine was collected for 24 hours, and after measurement of the volume, the urine was centrifuged under cooling (3000 rpm, 4°C) for 5 minutes. The supernatant was analyzed for urinary albumin content using an autoanalyzer (Olympus). A test compound was orally administered once a day for 11 weeks, starting on the fifth day after the STZ administration. […] Statistical significance was evaluated by Aspin-Welch's test for the difference between the control group and the normal group and by Steel's test for the difference between the control group and the test compound-administered group.

## CCOc1cc2nc(N3CCOCC3)nc(N3CCC(n4c(=O)c5cc(C)ccc5n(C)c4=O)CC3)c2cc1OCC.Cl [Compound 10, 3-[1-(6,7-Diethoxy-2-morpholino-4-quinazolinyl)-4-piperidinyl]-1,2,3,4-tetrahydro-1,6-dimethyl-2,4-dioxoquinazoline hydrochloride]
Masugi Nephritis
  Urinary Albumin Content: 96 ± 7 mg/kg/24 hr
dd-strain male mice; intraperitoneal administration
  minimum lethal dose (MLD): > 100 mg/kg
dd-strain male mice; oral administration
  minimum lethal dose (MLD): > 1000 mg/kg
Diabetic Nephropathy; 1 mg/kg orally once a day for 11 weeks
  Urinary Albumin Content: 244 ± 16 mg/kg/24 hr
Diabetic Nephropathy; 10 mg/kg orally once a day for 11 weeks
  Urinary Albumin Content: 200 ± 13 mg/kg/24 hr
